Legend:
xanthine oxidase (XO) = xanthine oxidase (XO) (Bos taurus, UniProt P80457); assay: Xanthine oxidase inhibitory activity; assay type: biochemical
alpha-amylase = biological target: T1, alpha-amylase (Sus scrofa, UniProt P00690); assay: Alpha-amylase inhibitory activity; assay type: biochemical; details: qualitative statement
T1 sequence (P00690 16-511): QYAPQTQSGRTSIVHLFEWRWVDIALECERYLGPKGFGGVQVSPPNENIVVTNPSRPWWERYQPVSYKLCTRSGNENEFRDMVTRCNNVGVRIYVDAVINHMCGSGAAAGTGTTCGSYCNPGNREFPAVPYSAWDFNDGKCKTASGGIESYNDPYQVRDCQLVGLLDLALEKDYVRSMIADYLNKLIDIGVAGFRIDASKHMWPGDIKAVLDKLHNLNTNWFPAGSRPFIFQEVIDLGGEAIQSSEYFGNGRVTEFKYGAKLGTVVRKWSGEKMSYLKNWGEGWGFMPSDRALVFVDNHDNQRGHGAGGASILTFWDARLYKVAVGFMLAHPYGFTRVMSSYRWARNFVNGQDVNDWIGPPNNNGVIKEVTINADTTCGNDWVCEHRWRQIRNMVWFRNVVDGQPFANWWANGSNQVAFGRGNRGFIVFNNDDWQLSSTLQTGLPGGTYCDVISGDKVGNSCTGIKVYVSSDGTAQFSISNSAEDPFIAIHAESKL

xanthine oxidase (XO), sequence (P80457 2-1332 limits assumed): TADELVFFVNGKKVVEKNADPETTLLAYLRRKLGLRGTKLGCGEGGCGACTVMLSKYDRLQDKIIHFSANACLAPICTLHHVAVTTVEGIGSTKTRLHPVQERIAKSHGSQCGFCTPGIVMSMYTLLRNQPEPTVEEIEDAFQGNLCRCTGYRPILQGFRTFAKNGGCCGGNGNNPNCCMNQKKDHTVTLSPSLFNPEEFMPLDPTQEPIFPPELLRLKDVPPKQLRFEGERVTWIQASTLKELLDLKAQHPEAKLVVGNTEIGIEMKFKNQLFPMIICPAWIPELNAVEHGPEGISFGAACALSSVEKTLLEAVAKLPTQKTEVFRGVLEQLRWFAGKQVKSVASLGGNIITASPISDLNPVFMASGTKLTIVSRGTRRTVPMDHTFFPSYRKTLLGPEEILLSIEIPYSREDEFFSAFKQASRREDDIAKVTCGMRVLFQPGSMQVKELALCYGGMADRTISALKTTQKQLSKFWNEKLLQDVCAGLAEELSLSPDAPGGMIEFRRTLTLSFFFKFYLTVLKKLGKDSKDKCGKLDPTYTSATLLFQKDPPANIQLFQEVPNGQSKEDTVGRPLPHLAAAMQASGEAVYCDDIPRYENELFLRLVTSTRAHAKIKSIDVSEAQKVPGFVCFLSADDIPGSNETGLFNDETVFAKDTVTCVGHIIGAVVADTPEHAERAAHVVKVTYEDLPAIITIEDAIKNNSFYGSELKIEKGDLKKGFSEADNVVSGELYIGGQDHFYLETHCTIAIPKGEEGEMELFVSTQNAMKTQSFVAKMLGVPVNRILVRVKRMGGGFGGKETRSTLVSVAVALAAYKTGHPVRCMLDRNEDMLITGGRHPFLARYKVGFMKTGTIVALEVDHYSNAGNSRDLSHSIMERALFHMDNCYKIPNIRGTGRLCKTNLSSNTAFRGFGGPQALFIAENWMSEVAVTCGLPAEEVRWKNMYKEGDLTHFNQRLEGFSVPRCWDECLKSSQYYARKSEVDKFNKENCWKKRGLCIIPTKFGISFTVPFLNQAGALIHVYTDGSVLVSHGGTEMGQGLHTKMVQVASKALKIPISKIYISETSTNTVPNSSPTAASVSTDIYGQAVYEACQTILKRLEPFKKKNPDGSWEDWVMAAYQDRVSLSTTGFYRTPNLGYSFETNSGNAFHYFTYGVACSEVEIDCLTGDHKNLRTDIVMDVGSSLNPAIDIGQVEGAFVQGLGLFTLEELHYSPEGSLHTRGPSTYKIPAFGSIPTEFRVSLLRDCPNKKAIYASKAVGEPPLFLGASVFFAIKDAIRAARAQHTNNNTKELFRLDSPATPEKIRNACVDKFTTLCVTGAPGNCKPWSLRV

| Compound | XO inhibitory activity (in words) (xanthine oxidase (XO); qualitative statement) | Alpha-amylase inhibitory activity (in words) (alpha-amylase) | other results |
| --- | --- | --- | --- |
| 2-hydroxyacetophenone [F2] | active |  |  |
| C[C@@H]1O[C@@H](OC[C@H]2O[C@@H](Oc3c(-c4ccc(O)c(O)c4)oc4cc(O)cc(O)c4c3=O)[C@H](O)[C@@H](O)[C@@H]2O)[C@H](O)[C@H](O)[C@H]1O [F9, rutin] | active |  | EC50 (xanthine oxidase (XO)): 17.5 µM |
| C=C(C)[C@@H]1CC[C@]2(C)CC[C@]3(C)[C@H](CC[C@@H]4[C@@]5(C)CC[C@H](O)C(C)(C)[C@@H]5CC[C@]43C)[C@@H]12 [F11, lupeol] |  | more active against alpha-amylase as compared to the parent fraction |  |
| O=c1c(O)c(-c2ccc(O)c(O)c2)oc2cc(O)cc(O)c12 [F10, quercetin] |  |  | XO inhibitory activity (in words) (xanthine oxidase (XO); qualitative statement in text, listed as Quercetin): highest inhibitory activity; XO inhibitory activity (in words) (xanthine oxidase (XO); qualitative statement in text, listed as quercetin): active |
| CC[C@H](CC[C@@H](C)[C@H]1CC[C@H]2[C@@H]3CC=C4C[C@@H](O)CC[C@]4(C)[C@H]3CC[C@]12C)C(C)C [F7, β-sitosterol] |  | more active against alpha-amylase as compared to the parent fraction |  |

Source: publication PMC4660506 (Pharmacognosy Research, 2015)
